{
  "source": "ChEMBL document CHEMBL1821675",
  "about": "“The selective P-TEFb inhibitor CAN508 targets angiogenesis” (Eur J Med Chem, 2011)",
  "key": {"[1]": {"test_system": "HUVEC", "test": "Antiangiogenic activity against HUVEC cells assessed as inhibition of VEGF-induced cell migration-associated wound closure at >10 uM after 16 hrs by microscopic analysis", "type": "functional, cell-based", "settings": "Homo sapiens"}, "[2]": {"biological_target": "Casein kinase I isoform delta (Homo sapiens) (UniProt P48730)", "sequence (P48730 whole entry, looked up, canonical isoform)": "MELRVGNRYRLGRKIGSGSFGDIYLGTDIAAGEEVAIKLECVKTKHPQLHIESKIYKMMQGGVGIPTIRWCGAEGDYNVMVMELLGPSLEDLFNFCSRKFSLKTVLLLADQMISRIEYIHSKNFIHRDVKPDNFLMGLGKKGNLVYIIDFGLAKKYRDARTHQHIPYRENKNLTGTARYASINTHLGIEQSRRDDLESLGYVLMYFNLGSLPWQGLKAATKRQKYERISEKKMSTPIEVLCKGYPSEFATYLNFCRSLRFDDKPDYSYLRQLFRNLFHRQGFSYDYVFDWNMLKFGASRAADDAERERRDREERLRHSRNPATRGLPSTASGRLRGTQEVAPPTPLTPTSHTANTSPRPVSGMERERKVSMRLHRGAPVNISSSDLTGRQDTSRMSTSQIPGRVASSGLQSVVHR", "test": "Inhibition of CK1delta assessed as residual activity at 10 uM by radioactivity assay in presence of 20 uM ATP"}, "[3]": {"test": "Cytotoxicity against human Hs 578T cells", "type": "functional"}, "[4]": {"test_system": "MCF7", "test": "Cytotoxicity against human MCF7 cells", "type": "functional"}, "[5]": {"biological_target": "Serine/threonine-protein kinase N2 (Homo sapiens) (UniProt Q16513)", "test": "Inhibition of PRK2 assessed as residual activity at 10 uM by radioactivity assay in presence of 5 uM ATP"}, "[6]": {"test_system": "KM12", "test": "Cytotoxicity against human KM12 cells", "type": "functional"}, "[7]": {"test_system": "HCT-116", "test": "Cytotoxicity against human HCT116 cells", "type": "functional"}, "[8]": {"biological_target": "Serine/threonine-protein kinase PLK1 (Homo sapiens) (UniProt P53350)", "sequence (P53350 whole entry)": "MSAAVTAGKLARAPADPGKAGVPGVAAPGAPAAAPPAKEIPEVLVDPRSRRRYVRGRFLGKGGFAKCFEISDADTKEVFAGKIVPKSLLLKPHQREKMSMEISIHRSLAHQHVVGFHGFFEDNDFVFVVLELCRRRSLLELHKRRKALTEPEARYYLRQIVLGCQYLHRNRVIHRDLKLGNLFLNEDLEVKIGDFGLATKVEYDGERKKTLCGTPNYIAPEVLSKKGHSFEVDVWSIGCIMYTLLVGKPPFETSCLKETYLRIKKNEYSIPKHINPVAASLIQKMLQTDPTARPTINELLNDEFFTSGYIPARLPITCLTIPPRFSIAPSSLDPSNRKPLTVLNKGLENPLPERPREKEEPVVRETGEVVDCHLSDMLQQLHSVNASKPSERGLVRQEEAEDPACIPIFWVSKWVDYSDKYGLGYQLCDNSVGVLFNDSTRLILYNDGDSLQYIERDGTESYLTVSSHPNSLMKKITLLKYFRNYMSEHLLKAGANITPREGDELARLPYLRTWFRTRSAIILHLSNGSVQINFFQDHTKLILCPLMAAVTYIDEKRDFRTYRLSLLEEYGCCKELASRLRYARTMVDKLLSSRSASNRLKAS", "test": "Inhibition of PLK1 assessed as residual activity at 10 uM by radioactivity assay in presence of 5 uM ATP"}, "[9]": {"biological_target": "Cyclin-dependent kinase 9 (Homo sapiens) (UniProt P50750)", "sequence (P50750 whole entry)": "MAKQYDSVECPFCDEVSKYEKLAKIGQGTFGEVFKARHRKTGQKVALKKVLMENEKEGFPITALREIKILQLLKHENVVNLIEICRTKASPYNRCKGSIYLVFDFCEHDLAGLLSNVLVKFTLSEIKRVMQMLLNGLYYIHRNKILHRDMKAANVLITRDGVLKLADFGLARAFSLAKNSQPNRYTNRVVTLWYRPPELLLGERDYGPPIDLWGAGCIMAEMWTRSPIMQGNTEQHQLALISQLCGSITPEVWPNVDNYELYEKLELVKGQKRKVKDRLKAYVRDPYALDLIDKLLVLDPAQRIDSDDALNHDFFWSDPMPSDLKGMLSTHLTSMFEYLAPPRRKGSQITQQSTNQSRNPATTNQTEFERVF", "test": "Inhibition of CDK9-catalyzed RNA polymerase 2 phosphorylation at Ser2 in human MCF7 cells after 2 hrs by immunoblotting", "type": "cell-based"}, "[10]": {"biological_target": "Serine/threonine-protein kinase Nek2 (Homo sapiens) (UniProt P51955)", "test": "Inhibition of NEK2a assessed as residual activity at 10 uM by radioactivity assay in presence of 50 uM ATP"}, "[11]": {"biological_target": "Glycogen synthase kinase-3 beta (Homo sapiens) (UniProt P49841)", "test": "Inhibition of GSK3b assessed as residual activity at 10 uM by radioactivity assay in presence of 5 uM ATP"}, "[12]": {"biological_target": "Serine/threonine-protein kinase D1 (Homo sapiens) (UniProt Q15139)", "test": "Inhibition of PKD1 assessed as residual activity at 10 uM by radioactivity assay in presence of 50 uM ATP"}, "[13]": {"test_system": "NCI-H522", "test": "Cytotoxicity against human NCI-H522 cells", "type": "functional"}, "[14]": {"test_system": "A549", "test": "Cytotoxicity against human A549 cells", "type": "functional"}, "[15]": {"test_system": "RXF 393", "test": "Cytotoxicity against human RXF393 cells", "type": "functional"}, "[16]": {"biological_target": "RAC-beta serine/threonine-protein kinase (Homo sapiens) (UniProt P31751)", "test": "Inhibition of PKBbeta assessed as residual activity at 10 uM by radioactivity assay in presence of 50 uM ATP"}, "[17]": {"biological_target": "Serine/threonine-protein kinase MARK2 (Homo sapiens) (UniProt Q7KZI7)", "sequence (Q7KZI7 whole entry)": "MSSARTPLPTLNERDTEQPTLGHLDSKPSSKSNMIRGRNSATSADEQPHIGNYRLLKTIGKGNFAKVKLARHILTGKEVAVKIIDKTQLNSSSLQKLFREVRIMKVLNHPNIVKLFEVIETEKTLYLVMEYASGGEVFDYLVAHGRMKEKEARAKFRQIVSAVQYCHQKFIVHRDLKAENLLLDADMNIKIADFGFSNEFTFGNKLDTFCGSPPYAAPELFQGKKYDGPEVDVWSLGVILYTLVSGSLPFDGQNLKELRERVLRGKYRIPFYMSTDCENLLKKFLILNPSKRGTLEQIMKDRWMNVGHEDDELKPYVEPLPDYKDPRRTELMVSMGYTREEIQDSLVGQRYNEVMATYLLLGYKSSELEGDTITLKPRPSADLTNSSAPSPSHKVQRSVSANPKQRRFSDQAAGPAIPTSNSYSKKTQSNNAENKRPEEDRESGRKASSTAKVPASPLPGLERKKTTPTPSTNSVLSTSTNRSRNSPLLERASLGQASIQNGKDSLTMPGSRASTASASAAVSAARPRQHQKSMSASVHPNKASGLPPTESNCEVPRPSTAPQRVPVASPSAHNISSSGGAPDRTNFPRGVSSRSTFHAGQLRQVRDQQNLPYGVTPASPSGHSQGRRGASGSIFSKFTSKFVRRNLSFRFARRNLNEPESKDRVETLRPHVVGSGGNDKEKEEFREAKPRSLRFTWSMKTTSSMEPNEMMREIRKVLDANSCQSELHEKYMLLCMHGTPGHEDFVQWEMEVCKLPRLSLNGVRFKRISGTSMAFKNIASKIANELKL", "test": "Inhibition of MARK2 assessed as residual activity at 10 uM by radioactivity assay in presence of 20 uM ATP"}, "[18]": {"test_system": "OVCAR-4", "test": "Cytotoxicity against human OVCAR4 cells", "type": "functional"}, "[19]": {"test": "Inhibition of TNF-alpha-induced Nuclear factor-kappa-B-mediated ICAM-1 expression in human HMEC1 cells after 24 hrs by FACS analysis", "type": "cell-based", "settings": "HMEC-1, 24 h"}, "[20]": {"biological_target": "Serine/threonine-protein kinase BRSK1 (Homo sapiens) (UniProt Q8TDC3)", "sequence (Q8TDC3 whole entry)": "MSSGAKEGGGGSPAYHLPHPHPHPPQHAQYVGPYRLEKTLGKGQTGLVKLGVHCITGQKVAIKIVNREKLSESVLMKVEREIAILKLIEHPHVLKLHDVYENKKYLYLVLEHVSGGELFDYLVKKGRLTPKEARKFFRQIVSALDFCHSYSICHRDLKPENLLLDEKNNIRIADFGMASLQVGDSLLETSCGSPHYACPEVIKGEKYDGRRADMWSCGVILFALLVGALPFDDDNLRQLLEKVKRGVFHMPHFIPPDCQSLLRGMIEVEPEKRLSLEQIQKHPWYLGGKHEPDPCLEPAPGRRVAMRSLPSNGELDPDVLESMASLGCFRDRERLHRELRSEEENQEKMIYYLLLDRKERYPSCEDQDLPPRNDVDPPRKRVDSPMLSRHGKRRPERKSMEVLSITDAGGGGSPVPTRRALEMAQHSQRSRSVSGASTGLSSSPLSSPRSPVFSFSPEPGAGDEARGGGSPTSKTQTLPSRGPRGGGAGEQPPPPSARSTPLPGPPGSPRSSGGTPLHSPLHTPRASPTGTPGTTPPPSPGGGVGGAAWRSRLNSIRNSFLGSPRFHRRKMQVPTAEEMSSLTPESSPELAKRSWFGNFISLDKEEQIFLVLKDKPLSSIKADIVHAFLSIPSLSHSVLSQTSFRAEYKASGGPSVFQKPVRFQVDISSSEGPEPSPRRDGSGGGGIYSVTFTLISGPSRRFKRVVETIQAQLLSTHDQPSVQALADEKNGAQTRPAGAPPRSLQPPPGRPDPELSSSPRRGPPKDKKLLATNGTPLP", "test": "Inhibition of BRSK1 assessed as residual activity at 10 uM by radioactivity assay in presence of 20 uM ATP"}, "[21]": {"biological_target": "Mitogen-activated protein kinase 11 (Homo sapiens) (UniProt Q15759)", "test": "Inhibition of p38beta MAPK assessed as residual activity at 10 uM by radioactivity assay in presence of 20 uM ATP"}, "[22]": {"test_system": "T47D", "test": "Cytotoxicity against human T47D cells", "type": "functional"}, "[23]": {"test_system": "BT-549", "test": "Cytotoxicity against human BT549 cells", "type": "functional"}, "[24]": {"test_system": "HMEC-1", "test": "Inhibition of RNA synthesis in human HMEC1 cells assessed as decrease in [3H] Uridine incorporation after 2 hrs by scintillation counting", "type": "functional, cell-based"}, "[25]": {"biological_target": "Mitogen-activated protein kinase kinase kinase 1 (Homo sapiens) (UniProt Q13233)", "test": "Inhibition of MEKK1 assessed as residual activity at 10 uM by radioactivity assay in presence of 20 uM ATP"}, "[26]": {"test": "Antiangiogenic activity in VEGF-stimulated HMEC1 assessed as reduction in median length of tube at 40 uM after 16 hrs by photographic analysis", "type": "functional, Homo sapiens, HMEC-1", "set-up": "scale not given: the % may be the effect or the level left"}, "[27]": {"biological_target": "Casein kinase II subunit alpha (Homo sapiens) (UniProt P68400)", "test": "Inhibition of CK2alpha assessed as residual activity at 10 uM by radioactivity assay in presence of 20 uM ATP"}, "[28]": {"test_system": "UACC-62", "test": "Cytotoxicity against human UACC62 cells", "type": "functional"}, "[29]": {"biological_target": "Serine/threonine-protein kinase PAK 2 (Homo sapiens) (UniProt Q13177)", "sequence (Q13177 whole entry)": "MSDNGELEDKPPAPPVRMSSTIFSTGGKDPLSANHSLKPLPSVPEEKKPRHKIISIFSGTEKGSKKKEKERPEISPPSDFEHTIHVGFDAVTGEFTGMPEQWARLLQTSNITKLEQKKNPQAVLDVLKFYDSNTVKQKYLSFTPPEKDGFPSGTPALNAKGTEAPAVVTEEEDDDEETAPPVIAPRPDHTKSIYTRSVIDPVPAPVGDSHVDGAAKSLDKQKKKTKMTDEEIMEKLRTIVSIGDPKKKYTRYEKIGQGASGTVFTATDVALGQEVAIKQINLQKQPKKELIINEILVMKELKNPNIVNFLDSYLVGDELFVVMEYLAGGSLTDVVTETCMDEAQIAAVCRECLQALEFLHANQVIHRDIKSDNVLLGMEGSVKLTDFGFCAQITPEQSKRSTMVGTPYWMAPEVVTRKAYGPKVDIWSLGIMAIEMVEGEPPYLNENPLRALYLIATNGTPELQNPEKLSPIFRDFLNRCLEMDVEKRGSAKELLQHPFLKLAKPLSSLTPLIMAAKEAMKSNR", "test": "Inhibition of PAK2 assessed as residual activity at 10 uM by radioactivity assay in presence of 20 uM ATP"}, "[30]": {"test_system": "CAKI-1", "test": "Cytotoxicity against human Caki1 cells", "type": "functional"}, "[31]": {"biological_target": "3-phosphoinositide-dependent protein kinase 1 (Homo sapiens) (UniProt O15530)", "test": "Inhibition of PDK1 assessed as residual activity at 10 uM by radioactivity assay in presence of 20 uM ATP"}, "[32]": {"biological_target": "CDK9/cyclin T1 (Homo sapiens) (UniProt O60563+P50750)", "test": "Inhibition of CDK9/cyclin T assessed as residual activity at 10 uM by radioactivity assay in presence of 50 uM ATP", "type": "protein-complex assay"}, "[33]": {"biological_target": "Interleukin-1 receptor-associated kinase 4 (Homo sapiens) (UniProt Q9NWZ3)", "sequence (Q9NWZ3 whole entry)": "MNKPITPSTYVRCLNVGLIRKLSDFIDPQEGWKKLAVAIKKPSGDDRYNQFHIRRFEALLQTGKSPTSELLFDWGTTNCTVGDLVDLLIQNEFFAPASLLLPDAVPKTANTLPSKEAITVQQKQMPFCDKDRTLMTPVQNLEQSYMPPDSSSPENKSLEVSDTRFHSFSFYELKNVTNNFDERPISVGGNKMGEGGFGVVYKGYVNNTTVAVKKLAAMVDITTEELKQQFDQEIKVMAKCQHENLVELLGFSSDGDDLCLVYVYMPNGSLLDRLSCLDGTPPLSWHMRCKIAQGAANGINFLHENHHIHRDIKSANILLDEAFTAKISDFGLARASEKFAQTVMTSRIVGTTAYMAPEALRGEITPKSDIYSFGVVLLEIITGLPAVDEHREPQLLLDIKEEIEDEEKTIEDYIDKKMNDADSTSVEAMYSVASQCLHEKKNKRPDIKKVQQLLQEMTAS", "test": "Inhibition of IRAK4 assessed as residual activity at 10 uM by radioactivity assay in presence of 20 uM ATP"}, "[34]": {"test_system": "EKVX", "test": "Cytotoxicity against human EKVX cells", "type": "functional"}, "[35]": {"biological_target": "Mitogen-activated protein kinase 1 (Homo sapiens) (UniProt P28482)", "test": "Inhibition of ERK2 assessed as residual activity at 10 uM by radioactivity assay in presence of 20 uM ATP"}, "[36]": {"test_system": "MDA-MB-231", "test": "Decrease in VEGF expression in human MDA-MB-231 cells at >10 uM after 24 hrs by sandwich ELISA", "type": "functional, cell-based"}, "[37]": {"biological_target": "Ribosomal protein S6 kinase beta-1 (Homo sapiens) (UniProt P23443)", "test": "Inhibition of S6K1 assessed as residual activity at 10 uM by radioactivity assay in presence of 20 uM ATP"}, "[38]": {"biological_target": "Aurora kinase A (Homo sapiens) (UniProt O14965)", "sequence (O14965 whole entry)": "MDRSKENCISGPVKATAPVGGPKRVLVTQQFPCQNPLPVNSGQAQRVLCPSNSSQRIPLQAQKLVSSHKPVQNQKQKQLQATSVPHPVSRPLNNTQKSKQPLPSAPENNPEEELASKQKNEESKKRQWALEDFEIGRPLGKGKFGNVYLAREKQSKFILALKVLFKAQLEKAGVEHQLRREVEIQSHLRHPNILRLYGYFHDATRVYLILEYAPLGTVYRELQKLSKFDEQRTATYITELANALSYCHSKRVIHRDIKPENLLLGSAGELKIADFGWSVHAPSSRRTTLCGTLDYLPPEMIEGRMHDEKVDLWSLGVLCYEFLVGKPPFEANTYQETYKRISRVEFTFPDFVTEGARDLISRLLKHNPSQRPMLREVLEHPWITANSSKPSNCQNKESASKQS", "test": "Inhibition of Aurora A assessed as residual activity at 10 uM by radioactivity assay in presence of 5 uM ATP"}, "[39]": {"biological_target": "NUAK family SNF1-like kinase 1 (Homo sapiens) (UniProt O60285)", "sequence (O60285 whole entry)": "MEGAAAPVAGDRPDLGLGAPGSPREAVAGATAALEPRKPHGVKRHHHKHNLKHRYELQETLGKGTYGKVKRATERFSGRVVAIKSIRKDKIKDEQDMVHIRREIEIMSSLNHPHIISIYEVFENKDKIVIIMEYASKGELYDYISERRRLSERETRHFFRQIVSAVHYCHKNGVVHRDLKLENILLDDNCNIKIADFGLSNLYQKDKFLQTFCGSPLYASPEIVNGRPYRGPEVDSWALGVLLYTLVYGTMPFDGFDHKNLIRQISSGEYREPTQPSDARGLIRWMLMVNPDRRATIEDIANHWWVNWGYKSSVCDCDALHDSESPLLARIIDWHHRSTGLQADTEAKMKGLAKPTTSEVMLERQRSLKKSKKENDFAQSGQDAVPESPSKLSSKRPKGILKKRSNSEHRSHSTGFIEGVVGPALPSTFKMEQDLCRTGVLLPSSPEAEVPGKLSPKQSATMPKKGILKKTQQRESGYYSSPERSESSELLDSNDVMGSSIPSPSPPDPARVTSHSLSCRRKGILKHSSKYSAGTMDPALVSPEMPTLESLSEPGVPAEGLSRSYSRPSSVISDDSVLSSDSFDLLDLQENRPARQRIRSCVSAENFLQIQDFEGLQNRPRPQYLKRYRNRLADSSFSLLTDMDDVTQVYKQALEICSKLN", "test": "Inhibition of NUAK1 assessed as residual activity at 10 uM by radioactivity assay in presence of 20 uM ATP"}, "[40]": {"biological_target": "Tyrosine-protein kinase BTK (Homo sapiens) (UniProt Q06187)", "test": "Inhibition of BTK assessed as residual activity at 10 uM by radioactivity assay in presence of 50 uM ATP"}, "[41]": {"biological_target": "Mitogen-activated protein kinase kinase kinase kinase 2 (Homo sapiens) (UniProt Q12851)", "test": "Inhibition of GCK assessed as residual activity at 10 uM by radioactivity assay in presence of 20 uM ATP"}},
  "note": "pIC50: −log10 of the molar value. Activity calls are given as the source filed them. The calls are words filed in the database; no cut-off is given here.",
  "data": [
    {"smiles": "Nc1n[nH]c(N)c1/N=N/c1ccc(O)cc1", "values": [
      {"measurement": "inhibition", "setting": "[1]", "result": "Active"},
      {"measurement": "Activity", "setting": "[2]", "result": 27, "unit": "%"},
      {"measurement": "GI50", "setting": "[3]", "result": 21.8, "unit": "µM"},
      {"measurement": "GI50", "setting": "[4]", "result": 23.5, "unit": "µM"},
      {"measurement": "Activity", "setting": "[5]", "result": 30, "unit": "%"},
      {"measurement": "GI50", "setting": "[6]", "result": 17.1, "unit": "µM"},
      {"measurement": "GI50", "setting": "[7]", "result": 18.9, "unit": "µM"},
      {"measurement": "Activity", "setting": "[8]", "result": 77, "unit": "%"},
      {"measurement": "inhibition", "setting": "[9]", "result": "Dose-dependent effect"},
      {"measurement": "Activity", "setting": "[10]", "result": 106, "unit": "%"},
      {"measurement": "Activity", "setting": "[11]", "result": 64, "unit": "%"},
      {"measurement": "Activity", "setting": "[12]", "result": 67, "unit": "%"},
      {"measurement": "GI50", "setting": "[13]", "result": 24.3, "unit": "µM"},
      {"measurement": "GI50", "setting": "[14]", "result": 22.5, "unit": "µM"},
      {"measurement": "GI50", "setting": "[15]", "result": 18.4, "unit": "µM"},
      {"measurement": "Activity", "setting": "[16]", "result": 56, "unit": "%"},
      {"measurement": "Activity", "setting": "[17]", "result": 79, "unit": "%"},
      {"measurement": "GI50", "setting": "[18]", "result": 19, "unit": "µM"},
      {"measurement": "pIC50", "setting": "[19]", "result": 4.70},
      {"measurement": "Activity", "setting": "[20]", "result": 66, "unit": "%"},
      {"measurement": "Activity", "setting": "[21]", "result": 102, "unit": "%"},
      {"measurement": "GI50", "setting": "[22]", "result": 14.2, "unit": "µM"},
      {"measurement": "GI50", "setting": "[23]", "result": 14, "unit": "µM"},
      {"measurement": "pIC50", "setting": "[24]", "result": 4.70},
      {"measurement": "Activity", "setting": "[25]", "result": 100, "unit": "%"},
      {"measurement": "Activity", "setting": "[26]", "result": 50, "unit": "%"},
      {"measurement": "Activity", "setting": "[27]", "result": 48, "unit": "%"},
      {"measurement": "GI50", "setting": "[28]", "result": 11, "unit": "µM"},
      {"measurement": "Activity", "setting": "[29]", "result": 91, "unit": "%"},
      {"measurement": "GI50", "setting": "[30]", "result": 14.8, "unit": "µM"},
      {"measurement": "Activity", "setting": "[31]", "result": 66, "unit": "%"},
      {"measurement": "Activity", "setting": "[32]", "result": 12, "unit": "%"},
      {"measurement": "Activity", "setting": "[33]", "result": 58, "unit": "%"},
      {"measurement": "GI50", "setting": "[34]", "result": 22, "unit": "µM"},
      {"measurement": "Activity", "setting": "[35]", "result": 106, "unit": "%"},
      {"measurement": "Activity", "setting": "[36]", "result": "Active"},
      {"measurement": "Activity", "setting": "[37]", "result": 79, "unit": "%"},
      {"measurement": "Activity", "setting": "[38]", "result": 107, "unit": "%"},
      {"measurement": "Activity", "setting": "[39]", "result": 40, "unit": "%"},
      {"measurement": "Activity", "setting": "[40]", "result": 41, "unit": "%"},
      {"measurement": "Activity", "setting": "[41]", "result": 20, "unit": "%"}
    ]}
  ]
}
